Laboratory results published in the supplement of paper PMC10307832.

Tests used:
Assay in all cases: relative viability (nuclei count vs DMSO), 5 days (fraction); higher = more cells survive
KN-93 + Luminespib = compound: CN(C/C=C/C1=CC=C(C=C1)Cl)CC2=CC=CC=C2N(CCO)S(=O)(=O)C3=CC=C(C=C3)OC [KN-93] + CCNC(=O)c1noc(-c2cc(C(C)C)c(O)cc2O)c1-c1ccc(CN2CCOCC2)cc1 [Luminespib] (partner 0.01 µM)
How it was run: (§1)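 After 5 days of treatment, lung cancer cells in 1536-well plates were fixed and stained in a single step (final 0.05% Triton X-100, 1% formaldehyde, 1 ug/ml Hoechst) and their nuclei counted on 4× images. Treatment had been applied by pin tool the day after seeding as one drug alone or as a fixed anchor-drug dose with five library-drug doses (not always all listed) in √10 steps. Relative viability is the nuclei count of treated wells divided by that of vehicle wells, and values are medians of duplicate plates.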

KN-93 + Trametinib = compound: CN(C/C=C/C1=CC=C(C=C1)Cl)CC2=CC=CC=C2N(CCO)S(=O)(=O)C3=CC=C(C=C3)OC [KN-93] + CC(=O)Nc1cccc(-n2c(=O)n(C3CC3)c(=O)c3c(Nc4ccc(I)cc4F)n(C)c(=O)c(C)c32)c1 [Trametinib] (partner 0.02 µM)
How it was run: as §1

KN-93 + OSI-027 = compound: CN(C/C=C/C1=CC=C(C=C1)Cl)CC2=CC=CC=C2N(CCO)S(=O)(=O)C3=CC=C(C=C3)OC [KN-93] + COc1cccc2cc(-c3nc([C@H]4CC[C@H](C(=O)O)CC4)n4ncnc(N)c34)[nH]c12 [OSI-027] (partner 0.5 µM)
How it was run: as §1

KN-93 + AZD7762 = compound: CN(C/C=C/C1=CC=C(C=C1)Cl)CC2=CC=CC=C2N(CCO)S(=O)(=O)C3=CC=C(C=C3)OC [KN-93] + NC(=O)Nc1cc(-c2cccc(F)c2)sc1C(=O)N[C@H]1CCCNC1 [AZD7762] (partner 0.2 µM)
How it was run: as §1

KN-93 + Vorinostat = compound: CN(C/C=C/C1=CC=C(C=C1)Cl)CC2=CC=CC=C2N(CCO)S(=O)(=O)C3=CC=C(C=C3)OC [KN-93] + O=C(CCCCCCC(=O)Nc1ccccc1)NO [Vorinostat] (partner 1 µM)
How it was run: as §1

Row | Cell Line | relative viability (KN-93 + Luminespib; first compound 0.08 µM) | relative viability (KN-93 + Luminespib; first compound 0.253 µM) | relative viability (KN-93 + Luminespib; first compound 2.53 µM) | relative viability (KN-93 + Luminespib; first compound 8 µM) | relative viability (KN-93 + Trametinib; first compound 0.08 µM) | relative viability (KN-93 + Trametinib; first compound 0.253 µM) | relative viability (KN-93 + Trametinib; first compound 2.53 µM) | relative viability (KN-93 + Trametinib; first compound 8 µM) | relative viability (KN-93 + OSI-027; first compound 0.08 µM) | relative viability (KN-93 + OSI-027; first compound 0.253 µM) | relative viability (KN-93 + OSI-027; first compound 2.53 µM) | relative viability (KN-93 + OSI-027; first compound 8 µM) | relative viability (KN-93 + AZD7762; first compound 0.08 µM) | relative viability (KN-93 + AZD7762; first compound 0.253 µM) | relative viability (KN-93 + AZD7762; first compound 2.53 µM) | relative viability (KN-93 + AZD7762; first compound 8 µM) | relative viability (KN-93 + Vorinostat; first compound 0.08 µM) | relative viability (KN-93 + Vorinostat; first compound 0.253 µM) | relative viability (KN-93 + Vorinostat; first compound 2.53 µM) | relative viability (KN-93 + Vorinostat; first compound 8 µM)
1 | NCI-H1792 | 0.272 | 0.396 | 0.31 | 0.367 | 0.277 | 0.441 | 0.487 | 0.275 | 0.527 | 0.651 | 0.768 | 0.664 | 0.583 | 0.504 | 0.683 | 0.353 |  |  |  | 
2 | NCI-H2009 | 1.05 | 1.11 | 1.08 | 0.746 | 0.319 | 0.283 | 0.271 | 0.188 | 0.608 | 0.629 | 0.535 | 0.248 |  |  |  |  | 0.716 | 0.679 | 0.637 | 0.447
3 | NCI-H2023 | 0.693 | 0.703 | 0.872 | 0.358 | 0.55 | 0.459 | 0.628 | 0.434 | 0.361 | 0.359 | 0.345 | 0.211 |  |  |  |  | 0.636 | 0.67 | 0.763 | 0.551
4 | NCI-H2228 | 0.174 | 0.126 | 0.163 | 0.134 | 0.413 | 0.539 | 0.573 | 0.153 | 0.55 | 0.443 | 0.567 | 0.237 |  |  |  |  | 0.588 | 0.786 | 0.655 | 0.346
5 | SK-LU-1 | 0.244 | 0.209 | 0.199 | 0.183 | 0.46 | 0.594 | 0.51 | 0.317 | 0.334 | 0.328 | 0.343 | 0.224 |  |  |  |  | 0.626 | 0.865 | 0.781 | 0.473
6 | SK-MES-1 | 0.899 | 0.69 | 0.728 | 0.286 | 0.561 | 0.493 | 0.514 | 0.407 | 0.517 | 0.547 | 0.605 | 0.415 |  |  |  |  | 1.11 | 1.12 | 1.14 | 0.924
7 | SW 1573 | 0.178 | 0.303 | 0.187 | 0.144 | 0.518 | 0.565 | 0.627 | 0.149 | 0.473 | 0.689 | 0.584 | 0.252 |  |  |  |  | 0.685 | 0.916 | 0.746 | 0.569
8 | UMC-11 | 1.01 | 1.33 | 1.32 | 0.346 | 0.607 | 0.761 | 0.858 | 0.223 | 0.442 | 0.526 | 0.488 | 0.314 |  |  |  |  | 0.364 | 0.35 | 0.359 | 0.267
